Test results as given in the kinase profiling compilation of Christmann-Franck et al. (2016).
Several values for one entry are separate records, joined by “and”; a condition that tells them apart may be missing. Identical values can stand only once.

Tests used:
Assay in all cases: KINOMEscan competition binding
Settings in all cases: compound 10.0 µM
[1] = tested on: ABL1 (human), P00519 [E255K]
[2] = tested on: ABL1 (human), P00519 [H396P]
ACVR1B (human) = ACVR1B (human) (UniProt P36896)
AKT3 (human) = AKT3 (human) (UniProt Q9Y243)
AURKA (human) = AURKA (human) (UniProt O14965)
AXL (human) = AXL (human) (UniProt P30530)
BMPR2 (human) = BMPR2 (human) (UniProt Q13873)
CAMK2G (human) = CAMK2G (human) (UniProt Q13555)
CAMK4 (human) = CAMK4 (human) (UniProt Q16566)
CDK11B (human) = CDK11B (human) (UniProt P21127)
CDK18 (human) = CDK18 (human) (UniProt Q07002)
CDK3 (human) = CDK3 (human) (UniProt Q00526)
CDK9 (human) = CDK9 (human) (UniProt P50750)
CSNK1A1L (human) = CSNK1A1L (human) (UniProt Q8N752)
DCLK2 (human) = DCLK2 (human) (UniProt Q8N568)
DDR2 (human) = DDR2 (human) (UniProt Q16832)
EGFR (human) = EGFR (human) (UniProt P00533)
[3] = tested on: EGFR (human), P00533 [A750P; 747-749 del]
[4] = tested on: EGFR (human), P00533 [G719C; 746-750 del]
[5] = tested on: EGFR (human), P00533 [L858R]
EPHA7 (human) = EPHA7 (human) (UniProt Q15375)
FGR (human) = FGR (human) (UniProt P09769)
IKBKB (human) = IKBKB (human) (UniProt O14920)
ITK (human) = ITK (human) (UniProt Q08881)
MAP2K2 (human) = MAP2K2 (human) (UniProt P36507)
MAP3K9 (human) = MAP3K9 (human) (UniProt P80192)
MAPK13 (human) = MAPK13 (human) (UniProt O15264)
MAPK6 (human) = MAPK6 (human) (UniProt Q16659)
MAPKAPK2 (human) = MAPKAPK2 (human) (UniProt P49137)
MARK4 (human) = MARK4 (human) (UniProt Q96L34)
MST1R (human) = MST1R (human) (UniProt Q04912)
NEK7 (human) = NEK7 (human) (UniProt Q8TDX7)
NTRK1 (human) = NTRK1 (human) (UniProt P04629)
NTRK2 (human) = NTRK2 (human) (UniProt Q16620)
PAK2 (human) = PAK2 (human) (UniProt Q13177)
PIK3C2B (human) = PIK3C2B (human) (UniProt O00750)
PKN2 (human) = PKN2 (human) (UniProt Q16513)
PKN2 (human), sequence (Q16513 whole entry, looked up): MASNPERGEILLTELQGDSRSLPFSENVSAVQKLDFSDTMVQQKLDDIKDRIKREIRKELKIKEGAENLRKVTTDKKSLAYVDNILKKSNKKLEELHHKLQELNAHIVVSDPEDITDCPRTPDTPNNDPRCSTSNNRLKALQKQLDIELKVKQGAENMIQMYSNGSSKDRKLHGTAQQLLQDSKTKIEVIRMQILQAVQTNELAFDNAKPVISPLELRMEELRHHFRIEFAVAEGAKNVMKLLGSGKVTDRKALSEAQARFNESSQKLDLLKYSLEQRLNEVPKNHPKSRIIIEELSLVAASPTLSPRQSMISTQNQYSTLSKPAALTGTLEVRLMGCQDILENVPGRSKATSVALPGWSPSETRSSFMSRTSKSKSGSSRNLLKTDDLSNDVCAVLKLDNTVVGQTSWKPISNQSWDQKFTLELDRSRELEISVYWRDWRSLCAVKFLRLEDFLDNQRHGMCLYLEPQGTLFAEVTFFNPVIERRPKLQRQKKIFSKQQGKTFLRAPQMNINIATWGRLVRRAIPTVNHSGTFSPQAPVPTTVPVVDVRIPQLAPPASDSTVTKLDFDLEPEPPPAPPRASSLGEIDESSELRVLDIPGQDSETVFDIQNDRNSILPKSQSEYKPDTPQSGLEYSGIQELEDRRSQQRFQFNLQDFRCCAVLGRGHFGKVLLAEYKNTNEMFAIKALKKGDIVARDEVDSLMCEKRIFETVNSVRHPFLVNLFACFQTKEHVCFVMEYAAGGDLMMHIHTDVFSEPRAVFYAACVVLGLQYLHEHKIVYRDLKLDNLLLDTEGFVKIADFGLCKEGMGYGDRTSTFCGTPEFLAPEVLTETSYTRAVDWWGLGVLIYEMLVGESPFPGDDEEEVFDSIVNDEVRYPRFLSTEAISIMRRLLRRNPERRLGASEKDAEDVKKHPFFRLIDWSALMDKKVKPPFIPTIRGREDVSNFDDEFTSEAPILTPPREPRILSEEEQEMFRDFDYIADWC

PRKG2 (human) = PRKG2 (human) (UniProt Q13237)
[6] = tested on: RET (human), P07949 [V804M]
RET (human), P07949 [V804M], sequence (P07949 whole entry V804M, looked up): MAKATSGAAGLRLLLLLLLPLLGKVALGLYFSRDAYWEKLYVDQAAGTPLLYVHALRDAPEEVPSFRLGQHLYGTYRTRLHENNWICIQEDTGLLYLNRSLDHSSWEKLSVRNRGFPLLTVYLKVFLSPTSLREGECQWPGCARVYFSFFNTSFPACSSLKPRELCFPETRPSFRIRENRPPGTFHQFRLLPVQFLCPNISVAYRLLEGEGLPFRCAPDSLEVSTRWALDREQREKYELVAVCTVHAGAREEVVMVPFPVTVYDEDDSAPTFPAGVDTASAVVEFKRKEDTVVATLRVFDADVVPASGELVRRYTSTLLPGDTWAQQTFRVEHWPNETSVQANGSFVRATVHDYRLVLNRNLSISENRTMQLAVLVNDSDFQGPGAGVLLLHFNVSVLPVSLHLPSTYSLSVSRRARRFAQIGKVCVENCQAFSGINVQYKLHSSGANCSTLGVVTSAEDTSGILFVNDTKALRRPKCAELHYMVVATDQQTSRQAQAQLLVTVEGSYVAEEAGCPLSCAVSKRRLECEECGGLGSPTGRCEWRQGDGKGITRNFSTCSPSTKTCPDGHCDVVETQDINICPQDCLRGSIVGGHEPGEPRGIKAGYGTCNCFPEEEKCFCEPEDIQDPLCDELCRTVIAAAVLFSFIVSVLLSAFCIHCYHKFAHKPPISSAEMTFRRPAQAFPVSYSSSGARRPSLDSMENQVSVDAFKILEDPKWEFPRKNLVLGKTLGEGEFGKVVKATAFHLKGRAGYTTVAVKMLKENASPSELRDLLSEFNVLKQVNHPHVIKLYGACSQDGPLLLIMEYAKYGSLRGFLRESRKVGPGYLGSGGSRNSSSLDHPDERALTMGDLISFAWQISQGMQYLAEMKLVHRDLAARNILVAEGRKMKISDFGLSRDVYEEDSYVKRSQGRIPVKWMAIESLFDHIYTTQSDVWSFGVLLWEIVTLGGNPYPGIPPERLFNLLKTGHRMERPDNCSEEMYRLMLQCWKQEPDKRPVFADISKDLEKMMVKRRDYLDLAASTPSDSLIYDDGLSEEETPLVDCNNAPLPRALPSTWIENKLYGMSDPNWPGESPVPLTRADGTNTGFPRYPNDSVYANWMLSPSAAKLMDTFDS

ROS1 (human) = ROS1 (human) (UniProt P08922)
ROS1 (human), sequence (P08922 whole entry, looked up): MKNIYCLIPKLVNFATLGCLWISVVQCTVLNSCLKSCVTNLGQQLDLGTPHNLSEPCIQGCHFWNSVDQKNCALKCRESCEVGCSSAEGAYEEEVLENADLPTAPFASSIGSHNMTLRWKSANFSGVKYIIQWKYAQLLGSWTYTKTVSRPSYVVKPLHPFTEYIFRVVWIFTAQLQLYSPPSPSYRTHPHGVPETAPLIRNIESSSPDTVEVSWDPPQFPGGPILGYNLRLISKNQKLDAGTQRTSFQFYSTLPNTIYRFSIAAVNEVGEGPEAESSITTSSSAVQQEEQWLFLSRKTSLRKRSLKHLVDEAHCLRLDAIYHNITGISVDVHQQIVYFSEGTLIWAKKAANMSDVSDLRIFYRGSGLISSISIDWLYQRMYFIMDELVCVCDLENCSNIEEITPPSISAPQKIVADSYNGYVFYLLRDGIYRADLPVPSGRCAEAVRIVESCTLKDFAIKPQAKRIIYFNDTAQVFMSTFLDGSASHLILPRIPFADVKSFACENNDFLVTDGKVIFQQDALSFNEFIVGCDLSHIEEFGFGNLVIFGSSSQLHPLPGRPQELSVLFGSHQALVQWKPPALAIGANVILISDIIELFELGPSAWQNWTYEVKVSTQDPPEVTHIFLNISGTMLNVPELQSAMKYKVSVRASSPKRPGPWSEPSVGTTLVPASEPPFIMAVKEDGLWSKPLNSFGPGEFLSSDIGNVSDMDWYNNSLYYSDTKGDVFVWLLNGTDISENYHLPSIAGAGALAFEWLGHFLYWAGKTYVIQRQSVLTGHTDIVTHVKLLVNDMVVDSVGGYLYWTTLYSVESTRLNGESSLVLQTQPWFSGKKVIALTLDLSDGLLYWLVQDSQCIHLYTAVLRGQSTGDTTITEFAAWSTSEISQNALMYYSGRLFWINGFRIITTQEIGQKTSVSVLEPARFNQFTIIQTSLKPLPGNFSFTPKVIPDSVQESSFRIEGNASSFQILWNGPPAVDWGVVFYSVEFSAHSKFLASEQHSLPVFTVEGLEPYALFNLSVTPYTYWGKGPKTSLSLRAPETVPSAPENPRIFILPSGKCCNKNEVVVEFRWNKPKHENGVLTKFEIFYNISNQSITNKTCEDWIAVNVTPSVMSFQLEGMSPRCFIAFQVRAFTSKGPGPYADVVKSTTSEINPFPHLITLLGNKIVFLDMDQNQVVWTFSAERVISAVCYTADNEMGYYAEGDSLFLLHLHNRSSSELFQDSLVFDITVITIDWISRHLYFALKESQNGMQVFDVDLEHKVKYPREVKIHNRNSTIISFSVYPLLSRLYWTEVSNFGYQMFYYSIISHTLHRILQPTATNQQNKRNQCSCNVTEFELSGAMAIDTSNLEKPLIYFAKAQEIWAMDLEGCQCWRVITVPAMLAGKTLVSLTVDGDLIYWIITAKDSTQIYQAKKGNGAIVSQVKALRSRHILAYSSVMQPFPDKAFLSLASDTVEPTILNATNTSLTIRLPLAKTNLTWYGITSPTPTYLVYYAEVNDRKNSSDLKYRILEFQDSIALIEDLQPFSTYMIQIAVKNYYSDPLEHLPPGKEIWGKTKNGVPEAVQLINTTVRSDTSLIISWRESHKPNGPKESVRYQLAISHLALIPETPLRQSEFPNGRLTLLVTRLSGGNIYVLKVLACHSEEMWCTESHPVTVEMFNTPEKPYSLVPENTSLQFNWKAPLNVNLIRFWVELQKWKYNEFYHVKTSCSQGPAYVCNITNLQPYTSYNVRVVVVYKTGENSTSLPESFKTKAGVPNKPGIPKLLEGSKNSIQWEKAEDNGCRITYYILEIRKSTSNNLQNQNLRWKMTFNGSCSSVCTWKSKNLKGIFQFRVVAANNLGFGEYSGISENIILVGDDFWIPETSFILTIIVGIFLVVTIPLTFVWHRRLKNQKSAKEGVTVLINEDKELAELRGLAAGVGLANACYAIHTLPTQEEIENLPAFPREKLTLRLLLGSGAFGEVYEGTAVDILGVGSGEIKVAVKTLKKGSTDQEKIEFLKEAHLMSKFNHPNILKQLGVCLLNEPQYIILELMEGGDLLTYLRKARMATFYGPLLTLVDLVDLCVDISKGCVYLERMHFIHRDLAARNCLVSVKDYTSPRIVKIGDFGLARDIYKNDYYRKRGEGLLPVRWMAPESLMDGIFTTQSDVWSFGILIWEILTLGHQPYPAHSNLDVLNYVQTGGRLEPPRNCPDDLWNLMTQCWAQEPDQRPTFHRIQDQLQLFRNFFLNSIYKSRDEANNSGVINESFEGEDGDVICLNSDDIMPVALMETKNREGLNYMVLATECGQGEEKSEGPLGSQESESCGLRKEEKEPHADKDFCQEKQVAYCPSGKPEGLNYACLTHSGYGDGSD

TEC (human) = TEC (human) (UniProt P42680)
TXK (human) = TXK (human) (UniProt P42681)

ACVR1B (human), sequence (P36896 whole entry, looked up): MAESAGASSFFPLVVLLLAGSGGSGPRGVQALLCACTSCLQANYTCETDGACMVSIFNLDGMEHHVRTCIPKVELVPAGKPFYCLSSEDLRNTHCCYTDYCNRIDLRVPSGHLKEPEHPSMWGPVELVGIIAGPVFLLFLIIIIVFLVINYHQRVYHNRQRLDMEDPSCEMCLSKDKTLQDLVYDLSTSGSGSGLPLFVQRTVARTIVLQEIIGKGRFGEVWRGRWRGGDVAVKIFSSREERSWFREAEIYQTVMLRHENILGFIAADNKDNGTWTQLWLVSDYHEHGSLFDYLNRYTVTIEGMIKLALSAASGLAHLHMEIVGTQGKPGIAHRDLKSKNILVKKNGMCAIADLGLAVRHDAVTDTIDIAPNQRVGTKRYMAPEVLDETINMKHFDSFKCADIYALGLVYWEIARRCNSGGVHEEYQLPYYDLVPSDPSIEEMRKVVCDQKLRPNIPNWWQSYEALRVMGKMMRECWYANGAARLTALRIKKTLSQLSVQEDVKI

**Q.** How did the kinase still bound, per cent of control [1] turn out when `O=C1NC(=O)/C(=C/c2c[nH]c(=O)c(-c3ccc(N4CCNCC4)nc3)c2)S1` was run?
**A.** 94%

**Q.** And the kinase still bound, per cent of control [2]?
**A.** 96%

**Q.** And the kinase still bound, per cent of control (ACVR1B (human))?
**A.** 80%

**Q.** And the kinase still bound, per cent of control (AKT3 (human))?
**A.** 98%

**Q.** And the kinase still bound, per cent of control (AURKA (human))?
**A.** 100%

**Q.** What about the kinase still bound, per cent of control (AXL (human)) of the same compound?
**A.** 24%

**Q.** What about the kinase still bound, per cent of control (BMPR2 (human)) of the same compound?
**A.** 19%

**Q.** And the kinase still bound, per cent of control (CAMK2G (human))?
**A.** 65%

**Q.** And the kinase still bound, per cent of control (CAMK4 (human))?
**A.** 100%

**Q.** What about the kinase still bound, per cent of control (CDK11B (human)) of the same compound?
**A.** 100%

**Q.** What about the kinase still bound, per cent of control (CDK18 (human)) of the same compound?
**A.** 82%

**Q.** And the kinase still bound, per cent of control (CDK3 (human))?
**A.** 100%

**Q.** What about the kinase still bound, per cent of control (CDK9 (human)) of the same compound?
**A.** 100%

**Q.** And the kinase still bound, per cent of control (CSNK1A1L (human))?
**A.** 100%

**Q.** And the kinase still bound, per cent of control (DCLK2 (human))?
**A.** 67%

**Q.** What about the kinase still bound, per cent of control (DDR2 (human)) of the same compound?
**A.** 100%

**Q.** What about the kinase still bound, per cent of control (EGFR (human)) of the same compound?
**A.** 73% and 89%

**Q.** And the kinase still bound, per cent of control [3]?
**A.** 56%

**Q.** And the kinase still bound, per cent of control [4]?
**A.** 95%

**Q.** What about the kinase still bound, per cent of control [5] of the same compound?
**A.** 49%

**Q.** What about the kinase still bound, per cent of control (EPHA7 (human)) of the same compound?
**A.** 97%

**Q.** What about the kinase still bound, per cent of control (FGR (human)) of the same compound?
**A.** 84%

**Q.** And the kinase still bound, per cent of control (IKBKB (human))?
**A.** 84%

**Q.** What about the kinase still bound, per cent of control (ITK (human)) of the same compound?
**A.** 89%

**Q.** And the kinase still bound, per cent of control (MAP2K2 (human))?
**A.** 15%

**Q.** And the kinase still bound, per cent of control (MAP3K9 (human))?
**A.** 94%

**Q.** What about the kinase still bound, per cent of control (MAPK13 (human)) of the same compound?
**A.** 100%

**Q.** And the kinase still bound, per cent of control (MAPK6 (human))?
**A.** 93%

**Q.** What about the kinase still bound, per cent of control (MAPKAPK2 (human)) of the same compound?
**A.** 100%

**Q.** What about the kinase still bound, per cent of control (MARK4 (human)) of the same compound?
**A.** 100%

**Q.** What about the kinase still bound, per cent of control (MST1R (human)) of the same compound?
**A.** 93%

**Q.** And the kinase still bound, per cent of control (NEK7 (human))?
**A.** 100%

**Q.** And the kinase still bound, per cent of control (NTRK1 (human))?
**A.** 78%

**Q.** And the kinase still bound, per cent of control (NTRK2 (human))?
**A.** 86%

**Q.** What about the kinase still bound, per cent of control (PAK2 (human)) of the same compound?
**A.** 53%

**Q.** And the kinase still bound, per cent of control (PIK3C2B (human))?
**A.** 90%

**Q.** What about the kinase still bound, per cent of control (PKN2 (human)) of the same compound?
**A.** 41%

**Q.** And the kinase still bound, per cent of control (PRKG2 (human))?
**A.** 100%

**Q.** What about the kinase still bound, per cent of control [6] of the same compound?
**A.** 88%

**Q.** What about the kinase still bound, per cent of control (ROS1 (human)) of the same compound?
**A.** 100%

**Q.** What about the kinase still bound, per cent of control (TEC (human)) of the same compound?
**A.** 84%

**Q.** And the kinase still bound, per cent of control (TXK (human))?
**A.** 80%
